Where two headings read alike, the source gives them in different places. Blank lines part the entries; values can stand above or below the compound they belong to.
Legend:
PD-L1 = settings: cited from earlier work
[1] = Lipophilicity by HPLC method (μHPLC logD); settings: for chromatographic logD: pH 7.4, μHPLC logD
human PD-L1 = target: T1, human PD-L1 (Homo sapiens, UniProt Q9NZQ7); test: HTRF PD-1/PD-L1 binding assay (cell-free); settings: for IC50: cell-free competitive PD-1/PD-L1 HTRF, mean ± SD, read-out: IC50 (hPD-L1 binding affinity, HTRF)
T1 construct: purchased Cisbio Bioassays SAS, Codolet, France 64PD1PEG
T1 sequence (Q9NZQ7 19-238 limits assumed): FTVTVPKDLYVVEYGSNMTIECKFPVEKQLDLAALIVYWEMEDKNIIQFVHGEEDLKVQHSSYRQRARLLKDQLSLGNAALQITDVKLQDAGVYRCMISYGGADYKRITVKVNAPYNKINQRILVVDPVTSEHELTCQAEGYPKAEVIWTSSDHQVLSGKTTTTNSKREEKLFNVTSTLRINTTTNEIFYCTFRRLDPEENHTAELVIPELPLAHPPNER

[2] = literature IC50 as stated in the original patent, read-out: Lit. IC50

Structure (SMILES): COc1ccccc1COc1cc(OCc2cccc(-c3ccc4c(c3)OCCO4)c2C)c(Cl)cc1CN1CCCC[C@H]1C(=O)O [BMS-3029]
- IC50 (PD-L1; [2]): 2350 nM

Structure (SMILES): Cc1c(COc2cc(OCc3cncc(S(C)(=O)=O)c3)c(CO)cc2Cl)cccc1-c1ccc2c(c1)OCCO2 [BMS-3013]
- IC50 (PD-L1; [2]): 80 nM

Structure (SMILES): CC(=O)NCCNCc1ccc(OCc2cccc(-c3ccccc3)c2C)cc1OCc1cc(C#N)ccc1F [BMS-1095]
- IC50 (PD-L1; [2]): 81.2 nM

Structure (SMILES): Cc1c(COc2cc(CNC[C@@H](O)C(=O)O)ccc2C(F)(F)F)cccc1-c1ccc2c(c1)OCCO2 [BMS-114]
- IC50 (PD-L1; [2]): 43 nM

Structure (SMILES): Cc1c(COc2cc(OCc3cccc(C#N)c3)c(CN[C@H](CCO)C(=O)O)cc2Cl)cccc1-c1ccc2c(c1)OCCO2 [BMS-1205]
- IC50 (PD-L1; [2]): 2.71 nM

Structure (SMILES): Cc1c(COc2ccc(CN[C@H](CO)C(=O)O)c(OCc3cccc(C#N)c3)c2)cccc1-c1ccccc1 [BMS-1016]
- IC50 (PD-L1; [2]): 4.55 nM

Structure (SMILES): Cc1cc(CNCCO)c(OCc2cncc(C#N)c2)cc1OCc1cccc(-c2ccc3c(c2)OCCO3)c1C#N [BMS-1306]
- IC50 (PD-L1; [2]): 0.92 nM

Structure (SMILES): Cc1c(COc2cc(OCc3cccc(C#N)c3)c(CNC(CO)(Cc3ccccc3)C(=O)O)cc2Cl)cccc1-c1ccc2c(c1)OCCO2 (centres unmarked) [BMS-1218]
- IC50 (PD-L1; [2]): 10.1 nM

Structure (SMILES): Cc1c(COc2cc(OCc3cccc(C#N)c3)c(CNC3(C(=O)O)CCN(C)CC3)cc2Cl)cccc1-c1ccc2c(c1)OCCO2 [BMS-1220]
- IC50 (PD-L1; [2]): 6.07 nM

Structure (SMILES): N#Cc1cncc(COc2cc(OCc3cccc(-c4ccccc4)c3Br)c(Cl)cc2CN2CCCC[C@H]2C(=O)O)c1 [Example 8]
- IC50 (PD-L1; read-out: IC50 (Figure 1, previously reported ligands)): 0.01 to 0.1 nM

Structure (SMILES): Cc1c(COc2cc(OCc3cncc(C#N)c3)c(CN[C@@H](Cc3cccnc3)C(=O)O)cc2Cl)cccc1-c1ccc2c(c1)OCCO2 [BMS-2010]
- IC50 (PD-L1; [2]): 50 nM

Structure (SMILES): CC(=O)NCCNCc1ccc(OCc2cccc(-c3ccccc3)c2C)cc1OCc1cccc(OC(F)(F)F)c1 [BMS-1082]
- IC50 (PD-L1; [2]): 828 nM

Structure (SMILES): Cc1c(COc2cc(OCc3cccc(C#N)c3)c(CNC(C(=O)O)C(C)(C)O)cc2Cl)cccc1-c1ccc2c(c1)OCCO2 (centres unmarked) [BMS-1210]
- IC50 (PD-L1; [2]): 12.7 nM

- chromatographic logD [1]: 3.64 ± 0.09
- IC50 (human PD-L1): 4.9 ± 0.3 nM
Structure (SMILES): Cc1c(COc2cc(OCc3ccnc(C#N)c3)c(CN3CCCC[C@H]3C(=O)O)cc2Cl)cccc1-c1ccc2c(c1)OCCO2 [Compound 4f, (S)-1-(5-Chloro-2-((2-cyanopyridin-4-yl)methoxy)-4-((3-(2,3-dihydrobenzo [b][1,4]dioxin-6-yl)-2-methylbenzyl)oxy)benzyl)piperidine-2-carboxylic Acid]

- chromatographic logD [1]: 4.9 ± 0.3
- fold decrease in affinity by fluoroethylation / fluoroethyl carbamylation at R3* (human PD-L1; IC50 ratio, pairs 4f vs 5h, 4j vs 5j): 160 fold
- IC50 (human PD-L1): 1700 nM
Structure (SMILES): CC(=O)NCCN(Cc1cc(Cl)c(OCc2cccc(-c3ccc4c(c3)OCCO4)c2C)cc1OCc1cccc(C#N)c1)C(=O)OCCF [Compound 5j, 2-Fluoroethyl (2-acetamidoethyl)(5-chloro-2-((3-cyanobenzyl)oxy)-4-((3-(2,3-dihydrobenzo[b][1,4]dioxin-6-yl)-2-methylbenzyl)oxy)benzyl)carbamate]

- μHPLC logD ([1]; pH 7.4): 2.3 ± 0.1
- chromatographic logD [1]: 2.33 ± 0.14
- IC50 (human PD-L1): > 50000 nM
Structure (SMILES): CC(=O)NCCNCc1cnc(OCc2cccc(-c3ccccc3)c2C)c(Cl)c1 [Compound 4a, N-(2-(((5-Chloro-6-((2-methyl-[1,1′-biphenyl]-3-yl)methoxy)pyridin-3-yl)methyl)amino)ethyl)acetamide]

- chromatographic logD [1]: 3.47 ± 0.06
- IC50 (human PD-L1): 3.7 ± 0.5 nM
Structure (SMILES): C#CCOC(=O)NCCCC[C@H](NCc1cc(Cl)c(OCc2cccc(-c3ccc4c(c3)OCCO4)c2C)cc1OCc1ccnc(C#N)c1)C(=O)O [Compound 4i, N^2-(5-Chloro-2-((2-cyanopyridin-4-yl)methoxy)-4-((3-(2,3-dihydrobenzo[b][1,4]dioxin-6-yl)-2-methylbenzyl)oxy)benzyl)-N^6-((prop-2-yn-1-yloxy)carbonyl)-L-lysine]

- chromatographic logD [1]: 3.14 ± 0.01
- fold reduction of affinity, pyrrole at R1 vs 1,4-benzodioxanyl analogue (human PD-L1; IC50 ratio, pairs 4c vs 4m, 4e vs 4n, 4f vs 4o, 5c vs 5f): 5.99 fold
- IC50 (human PD-L1): 29 ± 3 nM
Structure (SMILES): Cc1c(COc2cc(OCc3ccnc(C#N)c3)c(CN3CCCC[C@H]3C(=O)O)cc2Cl)cccc1-n1cccc1 [Compound 4o, (S)-1-(5-Chloro-2-((2-cyanopyridin-4-yl)methoxy)-4-((2-methyl-3-(1H-pyrrol-1-yl)benzyl)oxy)benzyl)piperidine-2-carboxylic Acid]

Source: article PMC10945501, “Development and In Vivo Evaluation of Small-Molecule Ligands for Positron Emission Tomography of Immune Checkpoint Modulation Targeting Programmed Cell Death 1 Ligand 1” (Journal of Medicinal Chemistry, 2024)
